Where two headings read alike, the source gives them in different places.
Biological target: Phi29-type DNA polymerase (Bacillus phage phi29, UniProt P03680)
Experiment: Dissociation constants of nucleotides with polymerase by fluorescence assays
Type: binding
Details: for Kd: fluorescence assays, natural and unincorporable nucleotides
From the text: Disclosed herein is a determination of a number of enzymatic parameters including substrate binding and dissociation constants (examples in Table 1) under a variety of conditions and with a variety of nucleotide analogs (NTPs, N6Ps, tagged N6Ps, α-thio and α,β-methylene nucleotide polyphosphates). In addition to these compounds, disclosed herein are fluorescent nucleotide analogs and unincorporable (α-thio) nucleotides that were designed and synthesized for the polymerase tests to develop new Nanopore-SBS approaches as described below.

Phi29-type DNA polymerase, sequence (P03680 whole entry): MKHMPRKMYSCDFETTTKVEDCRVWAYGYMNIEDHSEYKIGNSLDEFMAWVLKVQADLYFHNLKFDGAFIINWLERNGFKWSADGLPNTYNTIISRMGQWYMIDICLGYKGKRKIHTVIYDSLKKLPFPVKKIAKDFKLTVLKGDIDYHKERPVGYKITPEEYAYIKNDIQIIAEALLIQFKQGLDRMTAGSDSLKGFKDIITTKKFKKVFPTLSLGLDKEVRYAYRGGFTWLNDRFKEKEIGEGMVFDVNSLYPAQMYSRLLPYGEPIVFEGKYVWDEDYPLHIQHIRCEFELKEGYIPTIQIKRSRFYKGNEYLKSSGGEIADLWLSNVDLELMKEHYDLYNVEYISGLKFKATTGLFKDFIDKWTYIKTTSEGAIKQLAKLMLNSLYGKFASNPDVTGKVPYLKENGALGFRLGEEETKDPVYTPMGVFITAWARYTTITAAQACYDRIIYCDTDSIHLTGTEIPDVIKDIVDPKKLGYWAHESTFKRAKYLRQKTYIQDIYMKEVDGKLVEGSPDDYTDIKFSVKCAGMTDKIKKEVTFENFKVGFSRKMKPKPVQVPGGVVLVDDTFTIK

Row | Molecule | Kd | Kd (read-out: KD) | binding to the polymerase in the ternary complex (in words, compared with the other nucleotides)
1 | Nc1ccn(C2CC(O)C(COP(O)(=S)OP(=O)(O)OP(=O)(O)O)O2)c(=O)n1 (stereo not drawn) [2′-dCTP-αS (Rp-isomer), 2′-dCTP-αS] | 750 nM | – | –
2 | Nc1ccn(C2CC(O)C(COP(O)(=S)OP(=O)(O)OP(=O)(O)O)O2)c(=O)n1 (stereo not drawn) [2′-dCTP-αS (Sp-isomer), 2′-dCTP-αS] | 1 nM | – | –
3 | αS-dG6P-N3 [αS-dG6P-N3 (Rp-isomer)] | – | 670 nM | –
4 | Nc1nc2c(ncn2C2CC(O)C(COP(=O)(O)OP(=O)(O)OP(=O)(O)O)O2)c(=O)[nH]1 (stereo not drawn) [dGTP, reference compound] | 6 nM | – | –
5 | Nc1nc2c(ncn2C2CC(O)C(COP(O)(=S)OP(=O)(O)OP(=O)(O)O)O2)c(=O)[nH]1 (stereo not drawn) [2′-dGTP-αS (Sp-isomer), 2′-dGTP-αS] | 6 nM | – | –
6 | Nc1nc2c(ncn2C2CC(O)C(COP(O)(=S)OP(=O)(O)OP(=O)(O)O)O2)c(=O)[nH]1 (stereo not drawn) [2′-dGTP-αS (Rp-isomer), 2′-dGTP-αS] | 910 nM | – | –
7 | Nc1ccn(C2CC(O)C(COP(=O)(O)OP(=O)(O)OP(=O)(O)O)O2)c(=O)n1 (stereo not drawn) [dCTP, reference compound] | ~5 nM | – | –
8 | Nc1ccn(C2CC(O)C(COP(=O)(O)CP(=O)(O)OP(=O)(O)O)O2)c(=O)n1 (stereo not drawn) [dCp-CH2-pp, reference compound] | 25000 nM | – | do not bind as tightly
